# Assay results as given in ChEMBL document CHEMBL1201862, “PubChem BioAssay data set” (2004).
# The source made the active and inactive calls.
# Key:
# Type in all cases: functional
# [1] = target: T1, Corticotropin-releasing factor receptor 2/Corticotropin-releasing factor-binding protein (Homo sapiens, UniProt P24387+Q13324); assay: Dose Response confirmation of uHTS hits for small molecule antagonists of the CRF-binding protein and CRF-R2 receptor complex.; details: read-out: IC50_Mean
# T1 sequence (Q13324 whole entry): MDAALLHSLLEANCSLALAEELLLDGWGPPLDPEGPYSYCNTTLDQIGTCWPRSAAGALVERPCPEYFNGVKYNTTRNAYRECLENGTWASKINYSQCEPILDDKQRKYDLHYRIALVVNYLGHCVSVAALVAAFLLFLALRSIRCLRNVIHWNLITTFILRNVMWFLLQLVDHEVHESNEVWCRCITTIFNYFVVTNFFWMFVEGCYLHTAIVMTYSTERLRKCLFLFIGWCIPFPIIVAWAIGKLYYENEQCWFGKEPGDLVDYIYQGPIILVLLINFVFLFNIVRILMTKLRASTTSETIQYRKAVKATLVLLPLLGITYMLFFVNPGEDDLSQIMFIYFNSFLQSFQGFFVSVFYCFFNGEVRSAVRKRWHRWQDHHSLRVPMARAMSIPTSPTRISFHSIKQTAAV
# T1 sequence (P24387 whole entry): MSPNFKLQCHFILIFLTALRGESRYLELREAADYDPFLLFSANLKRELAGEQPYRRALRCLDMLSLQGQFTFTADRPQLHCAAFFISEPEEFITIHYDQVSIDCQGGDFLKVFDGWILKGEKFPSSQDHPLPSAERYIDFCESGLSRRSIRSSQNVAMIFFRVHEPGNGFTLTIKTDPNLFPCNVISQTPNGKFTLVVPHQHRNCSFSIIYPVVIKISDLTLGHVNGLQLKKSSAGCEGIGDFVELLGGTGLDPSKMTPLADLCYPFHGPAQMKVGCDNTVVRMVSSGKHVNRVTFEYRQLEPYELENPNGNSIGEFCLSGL
# [2] = target: T1, Corticotropin-releasing factor receptor 2/Corticotropin-releasing factor-binding protein; assay: activators of CRF receptor 2 with binding protein – uHTS hits, confirmation (AID 602473); details: read-out: EC50_Mean
# [3] = target: T2, Heat shock factor protein 1 (Mus musculus, UniProt P38532); assay: enhancement of HSF1-driven luciferase signal – cell-based, NIH3T3, luminescence, dose retest, confirmation (AID 435004);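 also: stress induced by proteasome inhibitor MG132 added 30 min after compound; luciferase reporter driven by HSF1 response element in NIH3T3 cells; actives raise luminescence as potentiators of the MG132 stress response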
# T2 sequence (P38532 whole entry): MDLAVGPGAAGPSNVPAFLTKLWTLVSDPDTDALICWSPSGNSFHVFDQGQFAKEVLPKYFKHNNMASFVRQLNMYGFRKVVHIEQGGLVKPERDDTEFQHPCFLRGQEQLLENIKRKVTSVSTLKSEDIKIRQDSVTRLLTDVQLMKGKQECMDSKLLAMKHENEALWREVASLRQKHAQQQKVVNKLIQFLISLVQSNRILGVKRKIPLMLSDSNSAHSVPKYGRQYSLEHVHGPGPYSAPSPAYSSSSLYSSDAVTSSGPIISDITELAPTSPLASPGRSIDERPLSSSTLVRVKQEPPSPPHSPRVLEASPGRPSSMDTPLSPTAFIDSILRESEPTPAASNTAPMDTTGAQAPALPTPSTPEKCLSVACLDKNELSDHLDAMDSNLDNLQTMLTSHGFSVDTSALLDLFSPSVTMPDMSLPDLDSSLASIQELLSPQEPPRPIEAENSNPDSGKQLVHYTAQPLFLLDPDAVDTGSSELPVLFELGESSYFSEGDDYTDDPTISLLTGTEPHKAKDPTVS
# INS1 = assay: INS-1E survival protection against cytokine death – cell-based, luminescence, retest, dose response (AID 449756); details: Rattus norvegicus;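 also: cell death triggered by IL-1 beta plus TNF-alpha plus IFN-gamma mixture; protective hits raise ATP signal compared with cytokine alone wells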
# [4] = target: T3, Replicative DNA helicase DnaB (Mycobacterium tuberculosis, UniProt P9WMR3); assay: DnaB intein splicing inhibitors, dose response, biochemical, cell-free fluorescence (AID 449749)
# T3 sequence (P9WMR3 whole entry): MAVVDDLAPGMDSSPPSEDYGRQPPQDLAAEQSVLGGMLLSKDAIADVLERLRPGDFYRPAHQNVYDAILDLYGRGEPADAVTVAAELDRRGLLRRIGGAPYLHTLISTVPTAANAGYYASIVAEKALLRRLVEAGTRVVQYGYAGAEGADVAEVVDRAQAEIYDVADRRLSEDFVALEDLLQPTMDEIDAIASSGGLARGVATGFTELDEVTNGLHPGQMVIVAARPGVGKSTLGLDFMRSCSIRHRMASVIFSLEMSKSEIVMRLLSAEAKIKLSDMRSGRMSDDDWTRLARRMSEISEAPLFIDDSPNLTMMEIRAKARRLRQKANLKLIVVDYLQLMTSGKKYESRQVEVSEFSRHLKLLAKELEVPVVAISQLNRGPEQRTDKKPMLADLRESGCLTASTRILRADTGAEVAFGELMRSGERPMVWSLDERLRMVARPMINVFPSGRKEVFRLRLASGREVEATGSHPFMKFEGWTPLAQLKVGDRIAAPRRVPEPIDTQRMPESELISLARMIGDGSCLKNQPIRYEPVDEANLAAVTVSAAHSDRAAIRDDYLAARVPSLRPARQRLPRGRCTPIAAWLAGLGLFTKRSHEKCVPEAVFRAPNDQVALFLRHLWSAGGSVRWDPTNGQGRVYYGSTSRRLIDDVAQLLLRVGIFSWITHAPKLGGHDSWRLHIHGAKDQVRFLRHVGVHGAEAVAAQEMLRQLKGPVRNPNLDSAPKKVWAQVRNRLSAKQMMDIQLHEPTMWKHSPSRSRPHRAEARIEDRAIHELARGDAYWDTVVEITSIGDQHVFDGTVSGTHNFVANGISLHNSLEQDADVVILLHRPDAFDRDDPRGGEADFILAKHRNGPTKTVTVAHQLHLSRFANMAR
# Protein RecA = target: T4, Protein RecA (Mycobacterium tuberculosis, UniProt P9WHJ3); assay: Fluorescence Cell-Free Homogeneous Dose Retest to Identify Inhibitors of RecA-Intein Splicing Activity. [Related pubchem assays (depositor defined):AID2097, AID2223, AID489010, AID492950]
# T4 sequence (P9WHJ3 whole entry): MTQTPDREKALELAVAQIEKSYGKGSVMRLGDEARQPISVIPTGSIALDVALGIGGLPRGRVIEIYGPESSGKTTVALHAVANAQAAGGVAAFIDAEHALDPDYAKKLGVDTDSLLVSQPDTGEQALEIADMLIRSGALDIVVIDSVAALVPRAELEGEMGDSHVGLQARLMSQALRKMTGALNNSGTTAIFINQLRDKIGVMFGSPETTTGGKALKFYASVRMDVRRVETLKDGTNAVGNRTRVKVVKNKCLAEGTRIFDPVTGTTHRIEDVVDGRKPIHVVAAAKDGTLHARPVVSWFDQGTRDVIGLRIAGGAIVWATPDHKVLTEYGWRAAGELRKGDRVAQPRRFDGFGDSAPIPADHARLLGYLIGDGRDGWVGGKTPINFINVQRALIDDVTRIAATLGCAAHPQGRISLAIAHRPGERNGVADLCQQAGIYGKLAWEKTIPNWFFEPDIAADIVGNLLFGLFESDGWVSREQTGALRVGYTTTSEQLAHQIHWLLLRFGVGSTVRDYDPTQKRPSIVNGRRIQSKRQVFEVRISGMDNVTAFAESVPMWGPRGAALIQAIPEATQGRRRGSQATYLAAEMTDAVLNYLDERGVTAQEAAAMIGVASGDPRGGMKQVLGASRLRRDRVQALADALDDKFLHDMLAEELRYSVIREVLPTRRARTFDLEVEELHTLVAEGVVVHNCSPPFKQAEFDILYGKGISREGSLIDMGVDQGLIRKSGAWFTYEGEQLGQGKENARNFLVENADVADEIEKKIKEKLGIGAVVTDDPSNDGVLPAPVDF
Structure (SMILES),IC50 [1],EC50 [2],EC50 [3],further results
CN(c1ccccc1)P(=O)(N1CC1)N1CC1,> 47.1 µM (inactive),> 53 µM (inactive),–,–
Cc1n[nH]c(=S)n(/N=C/c2cccs2)c1=O,> 47.1 µM (inactive),> 53 µM (inactive),–,–
Cc1oc(-c2ccccc2Cl)nc1CN1C(=O)CN=C(c2ccccc2)c2ccccc21,–,–,> 260 µM (inactive),–
COc1cc(CNC2CCCC2)cc(OC)c1,–,–,> 260 µM (inactive),–
Cn1cccc1/C=N/NC(=O)Cc1cccs1,–,–,–,AC50 (INS1): > 260 µM (inactive)
Cc1ccccc1Cn1ccc(=NCc2ccccc2)cc1,–,–,–,AC50 (INS1): > 260 µM (inactive)
C#CCOCCOCCOCCNc1nc(N2CCN(C(=O)Cn3cc(CCO)nn3)CC2)nc(N2CCN(C(=O)[C@H](CCCCN)n3cc(CC(C)O)nn3)CC2)n1 (some centres undefined),> 47.1 µM (inactive),> 53 µM (inactive),–,–
CCOC(=O)NNC(=O)c1[nH]c2ccc(Br)cc2c1-c1ccccc1,> 47.1 µM (inactive),> 53 µM (inactive),–,–
O=C(NC(=S)N1CCN(C/C=C/c2ccccc2)CC1)c1ccc(Cl)nc1,–,–,> 260 µM (inactive),–
CCOC(=O)C(NCc1ccccn1)(NC(=O)c1cccnc1)C(F)(F)F (centres undefined),> 47.1 µM (inactive),> 53 µM (inactive),–,–
Cn1c(-c2ccc(-c3ccccc3)cc2)c[nH]c1=S,> 47.1 µM (inactive),> 53 µM (inactive),–,–
CN(C)C(=O)c1ccc(=O)n(Cc2ccc(Cl)cc2Cl)c1,–,–,> 260 µM (inactive),–
Cc1ccc(N2C(=O)SC(N(CC(=O)O)c3ccc(C)cc3)C2=O)cc1 (centres undefined),–,–,> 260 µM (inactive),–
O=[N+]([O-])c1ccc(Oc2cccc(Br)c2)c2ccncc12,–,–,–,AC50 [4]: > 380 µM (inactive); EC50 (Protein RecA): 1.17 µM (active)
COc1cc(CC(=O)NCc2cccs2)cc(OC)c1OC,> 47.1 µM (inactive),> 53 µM (inactive),–,–
Cc1n[nH]c2c1C1(CCN(C(=O)OCc3ccccc3)CC1)C(C#N)=C(N)O2,–,–,–,AC50 [4]: 13.5 µM (active); EC50 (Protein RecA): 1.59 µM (active)
COc1cccc(N(CC(=O)N2CCc3ccccc3C2)S(C)(=O)=O)c1,–,–,> 260 µM (inactive),–
CC(NC(=O)CCCN1C(=O)c2ccccc2C1=O)c1ccc2c(c1)CCCC2 (centres undefined),–,–,> 260 µM (inactive),–
Cc1cc(C)cc(NC(=O)C2CCCN(c3nccc(C)n3)C2)c1 (centres undefined),> 47.1 µM (inactive),> 53 µM (inactive),–,–
